Data from the supplement of paper PMC4932681.
Structures can show the parent of a compound that is named as a salt.

Key:
MCF-7 Tam1 [1] = assay: relative IC50 (midpoint of fitted logistic curve, plateau may be below 50% inhibition; CellTiter-Glo viability); higher = less potent; settings: 4-OH-tamoxifen in medium 1 µM; 72 h
Experimental: (§1)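 FIMM FO2B library drugs were plated at 5 concentrations spanning a 10,000-fold range in 384-well plates. Cells were incubated for 72 h at 37 °C and viability was read by CellTiter-Glo, normalised to DMSO (0% inhibition) and 100 µM benzethonium chloride (100% inhibition). IC50 values come from logistic dose-response fits (Breeze pipeline). Tamoxifen-resistant lines and the 'in 1µM tamoxifen' parental arms were tested in medium with 1 µM 4-OH-tamoxifen.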

T-47D Tam1 [2] = assay: as above; settings: 4-OH-tamoxifen in medium 1 µM; 72 h
Experimental: as §1

BT-474 Tam1 [3] = assay: as above; settings: 4-OH-tamoxifen in medium 1 µM; 72 h
Experimental: as §1

ZR-75-1 Tam1 [4] = assay: as above; settings: 4-OH-tamoxifen in medium 1 µM; 72 h
Experimental: as §1

T-47D [5] = assay: as above; settings: 72 h
Experimental: as §1

BT-474 Tam2 [6] = assay: as above; settings: 4-OH-tamoxifen in medium 1 µM; 72 h
Experimental: as §1

BT-474 [7] = assay: as above; settings: 72 h
Experimental: as §1

MCF-7 [8] = assay: as above; settings: 72 h
Experimental: as §1

ZR-75-1 [9] = assay: as above; settings: 72 h
Experimental: as §1

ZR-75-1 Tam2 [10] = assay: as above; settings: 4-OH-tamoxifen in medium 1 µM; 72 h
Experimental: as §1

MCF-7 Tam1 [11] = assay: drug sensitivity score (DSS) (DSS (dimensionless)); higher = more sensitive; extreme values may be limits of the assay; settings: 4-OH-tamoxifen in medium 1 µM; 72 h
Experimental: (§2)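 FIMM FO2B library drugs were tested at 5 concentrations (10,000-fold range) for 72 h, with CellTiter-Glo viability normalised to DMSO and benzethonium chloride controls. The Drug Sensitivity Score (DSS) is computed from the fitted logistic dose-response curve (area-based; 0 = inactive). Resistant lines and the 'in 1µM tamoxifen' arms were tested in 1 µM 4-OH-tamoxifen.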

T-47D Tam1 [12] = assay: as above; settings: 4-OH-tamoxifen in medium 1 µM; 72 h
Experimental: as §2

BT-474 Tam1 [13] = assay: as above; settings: 4-OH-tamoxifen in medium 1 µM; 72 h
Experimental: as §2

T-47D Tam2 [14] = assay: as above; settings: 4-OH-tamoxifen in medium 1 µM; 72 h
Experimental: as §2

ZR-75-1 Tam1 [15] = assay: as above; settings: 4-OH-tamoxifen in medium 1 µM; 72 h
Experimental: as §2

T-47D [16] = assay: as above; settings: 72 h
Experimental: as §2

BT-474 Tam2 [17] = assay: as above; settings: 4-OH-tamoxifen in medium 1 µM; 72 h
Experimental: as §2

BT-474 [18] = assay: as above; settings: 72 h
Experimental: as §2

MCF-7 [19] = assay: as above; settings: 72 h
Experimental: as §2

ZR-75-1 [20] = assay: as above; settings: 72 h
Experimental: as §2

ZR-75-1 Tam2 [21] = assay: as above; settings: 4-OH-tamoxifen in medium 1 µM; 72 h
Experimental: as §2

T-47D Tam2 [22] = assay: relative IC50 (midpoint of fitted logistic curve, plateau may be below 50% inhibition; CellTiter-Glo viability); higher = less potent; settings: 4-OH-tamoxifen in medium 1 µM; 72 h
Experimental: as §1

Row | relative IC50 (MCF-7 Tam1 [1]) [µM] | relative IC50 (T-47D Tam1 [2]) [µM] | relative IC50 (BT-474 Tam1 [3]) [µM] | relative IC50 (T-47D [5]; 4-OH-tamoxifen in medium 0 µM) [µM] | relative IC50 (T-47D [5]; 4-OH-tamoxifen in medium 1 µM) [µM] | relative IC50 (BT-474 Tam2 [6]) [µM] | relative IC50 (BT-474 [7]; 4-OH-tamoxifen in medium 0 µM) [µM] | relative IC50 (BT-474 [7]; 4-OH-tamoxifen in medium 1 µM) [µM] | relative IC50 (MCF-7 [8]; 4-OH-tamoxifen in medium 0 µM) [µM] | relative IC50 (MCF-7 [8]; 4-OH-tamoxifen in medium 1 µM) [µM] | relative IC50 (T-47D Tam2 [22]) [µM] | SMILES | relative IC50 (ZR-75-1 Tam1 [4]) [µM] | relative IC50 (ZR-75-1 [9]; 4-OH-tamoxifen in medium 0 µM) [µM] | relative IC50 (ZR-75-1 [9]; 4-OH-tamoxifen in medium 1 µM) [µM] | relative IC50 (ZR-75-1 Tam2 [10]) [µM] | drug sensitivity score (MCF-7 Tam1 [11]) | drug sensitivity score (T-47D Tam1 [12]) | drug sensitivity score (BT-474 Tam1 [13]) | drug sensitivity score (T-47D Tam2 [14]) | drug sensitivity score (ZR-75-1 Tam1 [15]) | drug sensitivity score (T-47D [16]; 4-OH-tamoxifen in medium 0 µM) | drug sensitivity score (T-47D [16]; 4-OH-tamoxifen in medium 1 µM) | drug sensitivity score (BT-474 Tam2 [17]) | drug sensitivity score (BT-474 [18]; 4-OH-tamoxifen in medium 0 µM) | drug sensitivity score (BT-474 [18]; 4-OH-tamoxifen in medium 1 µM) | drug sensitivity score (MCF-7 [19]; 4-OH-tamoxifen in medium 0 µM) | drug sensitivity score (MCF-7 [19]; 4-OH-tamoxifen in medium 1 µM) | drug sensitivity score (ZR-75-1 [20]; 4-OH-tamoxifen in medium 0 µM) | drug sensitivity score (ZR-75-1 [20]; 4-OH-tamoxifen in medium 1 µM) | drug sensitivity score (ZR-75-1 Tam2 [21])
1 | > 10 | > 10 | > 10 | > 10 | > 10 | > 10 | > 10 | > 10 | > 10 | > 10 |  | CC(C)C[C@H](NC(=O)[C@@H](COC(C)(C)C)NC(=O)[C@H](Cc1ccc(O)cc1)NC(=O)[C@H](CO)NC(=O)[C@H](Cc1c[nH]c2ccccc12)NC(=O)[C@H](Cc1cnc[nH]1)NC(=O)[C@@H]1CCC(=O)N1)C(=O)N[C@@H](CCCNC(=N)N)C(=O)N1CCC[C@H]1C(=O)NNC(N)=O [Goserelin acetate] | > 10 | > 10 | > 10 | > 10 | 0 | 0 | 0 | 0.105 | 0 | 0 | 0 | 0 | 0 | 0 | 0 | 0 | 0 | 0 | 0
2 | > 10 | > 10 | > 10 | > 10 | > 10 | > 10 | > 10 | > 10 | > 10 | > 10 |  | CC1(C)CNc2cc(NC(=O)c3cccnc3NCc3ccncc3)ccc21 [Motesanib  (AMG-706)] | > 10 | > 10 | > 10 | > 10 | 0 | 0 | 0 | 0.166 | 0 | 0 | 0 | 0 | 0 | 0 | 0 | 0 | 0 | 0 | 0
3 | > 10 | > 10 | > 10 | > 10 | > 10 | > 10 | > 10 | > 10 | > 10 | > 10 |  | CN(N=O)C(=O)N[C@@H](C=O)[C@@H](O)[C@H](O)[C@H](O)CO [Streptozocin] | > 10 | > 10 | > 10 | > 10 | 0 | 0 | 0 | 0 | 0 | 0 | 0 | 0 | 0 | 0 | 0 | 0 | 0 | 0 | 0
4 | > 1 | > 1 | > 1 | > 1 |  | > 1 | > 1 | > 1 | > 1 | > 1 |  | CC(=O)Nc1ccc(C(=O)Nc2ccccc2N)cc1 [Tacedinaline (CI-994)] | > 1 | > 1 | > 1 | > 1 | 0 | 0 | 0 | 0.132 | 0 | 0 | 0.0059 | 0 | 0 | 0 | 0 | 0 | 0 | 0 | 0
5 |  |  | 2.39 | > 10 |  | 3.61 | 3.47 | 3.2 |  | 3.48 | 3.29 | CC/C(=C(\c1ccccc1)c1ccc(OCCN(C)C)cc1)c1ccccc1 [Tamoxifen citrate] |  | > 10 | 3.54 |  | 0.973 | 0.576 | 6.73 | 2.54 | 0.0116 | 0 | 0 | 4.61 | 1.53 | 5.05 | 0 | 3.99 | 0 | 1.69 | 0.865
6 | > 10 | > 10 | > 10 | > 10 |  | > 10 | > 10 | > 10 | > 10 | > 10 |  | CCCC(CCC)C(=O)O [Valproic acid] | > 10 | > 10 | > 10 | > 10 | 0 | 0 | 0 | 1.73 | 0 | 0 | 0.0101 | 0 | 0 | 0 | 0 | 0 | 0 | 0 | 0
7 | > 10 | > 10 | > 10 | > 10 | > 10 | > 10 | > 10 |  | > 10 | > 10 |  | CCCS(=O)(=O)Nc1ccc(F)c(C(=O)c2c[nH]c3ncc(-c4ccc(Cl)cc4)cc23)c1F [Vemurafenib (PLX4032)] | > 10 | > 10 |  | > 10 | 0 | 0 | 0 | 1.67 | 0 | 0 | 0 | 0 | 0 | 0.086 | 0 | 0 | 0 | 0 | 0
